Assay results published in patent US5696138A, “Urea derivatives and their use” (priority 1993, dated 1997).

Tests used:
BK channel [1] = target: BK channel (Bos taurus, UniProt Q28204); test: Single channel experiments, cultured bovine aortic smooth muscle cells; format: cell-based
Experimental: (§1) All experiments were performed with patch-clamp technique (Hamill et al., Pflugers Arch. 391, 85-100 (1981)). The ion composition of the internal solution was (in mM) 140 KCl, 1 CaCl2, 1 MgCl2, 2 EGTA, 10 HEPES and the external solution contained 140 NaCl, 4 KCl, 2 CaCl2, 1 MgCl2 and 10 HEPES.
The BK channels were also activated by N-(3-(trifluoromethyl)phenyl)-N'-(2-hydroxy-5-chlorophenyl) urea and N-phenyl-N'-(2-hydroxy-5-chlorophenyl) urea at concentrations equal or greater than 3 μM and by N-(3-(trifluoromethyl)phenyl)-N'-(2-hydroxy-5-(trifluoromethyl)phenyl) urea at concentrations greater than 10 μM.

BK channel [2] = test: Single channel experiments, inside-out patches of human coronary artery smooth muscle cell membrane; format: cell-based; conditions: 1-10 μM
Experimental: as §1
In inside-out patches of human coronary artery smooth muscle cell membrane single BK channels were activated by for example N-(3-(trifluoromethyl)phenyl)-N'-(2-hydroxy-5-chlorophenyl) urea (1-10 μM).

BK currents = BK currents (Bos taurus, UniProt Q28204); test: Whole cell recordings (patch-clamp, voltage clamp) of membrane currents in calf aortic smooth muscle cells; format: cell-based; conditions: 1-10 μM in the bath
Experimental: as §1
The membrane currents of calf aortic smooth muscle cells were determined in whole-cell recordings using voltage clamp mode (HEKA EPC-9 patch-clamp amplifier).

[3] = system: acetylcholine-contracted guinea-pig ileum; test: Guinea-pig ileum experiment (relaxation of acetylcholine-contracted ileum); conditions: 3-30 μM; ileum precontracted with acetylcholine 0.015-5.0 μM
Experimental: The compound, N-(3-(trifluoromethyl)phenyl)-N'-(2-hydroxy-5-chlorophenyl) urea, has been studied for its ability to relax acetylcholine-contracted guinea-pig ileum. The smooth muscle cells of the ileum express many BK channels and the model predicts relaxing effects on the gastrointestinal or urogenital tracts.
Method: Ileum from guinea-pigs are isolated and mounted in an isometric contraction chamber. It is bathed in a physiological Krebs solution at 98° F. The ileum is precontracted with increasing concentrations of acetylcholine (0.015-5.0 μM). The contractions are reversed by including the compound in the bathing solution.

[4] = system: cocaine induced hypermotility; test: Cocaine motility test; format: in vivo; conditions: 10-30 mg/kg i.p. 15 min before 25 mg/kg cocaine; female NMRI mice; motility over 120 min
Experimental: The compound, N-(3-(trifluoromethyl)phenyl)-N'-(2-hydroxy-5-chlorophenyl) urea, has been studied in the cocaine motility test. Cocaine induces hypermotility due to an inhibition of dopamine reuptake. The test is recognized as a test predicting anti-psychotic activity.
Method: Two female NMRI mice (20-25 g) are placed in each test box (normal transparent plexiglas cage, w, l, h=21×39×19 cm) in the test room for at least 16 hours with food and water ad libitum before the test in order for the animals to habituate to the situation. The test compound is administered i.p. 15 min before saline or 25 mg/kg cocaine jip. to 32 mice (16 boxes) per dose. Food and water are withdrawn, and the motility is measured as the number of interrupted infrared photo-beams (8 per box placed 5 cm apart and 3 cm over the bottom of the cage) for the next 120 min.

BK currents, sequence (Q28067 whole entry): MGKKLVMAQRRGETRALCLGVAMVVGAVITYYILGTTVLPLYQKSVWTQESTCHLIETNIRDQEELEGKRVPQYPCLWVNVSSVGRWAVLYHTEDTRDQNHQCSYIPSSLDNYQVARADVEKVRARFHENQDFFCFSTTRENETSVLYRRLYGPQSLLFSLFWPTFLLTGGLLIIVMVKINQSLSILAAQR
BK currents, sequence (Q28204 whole entry): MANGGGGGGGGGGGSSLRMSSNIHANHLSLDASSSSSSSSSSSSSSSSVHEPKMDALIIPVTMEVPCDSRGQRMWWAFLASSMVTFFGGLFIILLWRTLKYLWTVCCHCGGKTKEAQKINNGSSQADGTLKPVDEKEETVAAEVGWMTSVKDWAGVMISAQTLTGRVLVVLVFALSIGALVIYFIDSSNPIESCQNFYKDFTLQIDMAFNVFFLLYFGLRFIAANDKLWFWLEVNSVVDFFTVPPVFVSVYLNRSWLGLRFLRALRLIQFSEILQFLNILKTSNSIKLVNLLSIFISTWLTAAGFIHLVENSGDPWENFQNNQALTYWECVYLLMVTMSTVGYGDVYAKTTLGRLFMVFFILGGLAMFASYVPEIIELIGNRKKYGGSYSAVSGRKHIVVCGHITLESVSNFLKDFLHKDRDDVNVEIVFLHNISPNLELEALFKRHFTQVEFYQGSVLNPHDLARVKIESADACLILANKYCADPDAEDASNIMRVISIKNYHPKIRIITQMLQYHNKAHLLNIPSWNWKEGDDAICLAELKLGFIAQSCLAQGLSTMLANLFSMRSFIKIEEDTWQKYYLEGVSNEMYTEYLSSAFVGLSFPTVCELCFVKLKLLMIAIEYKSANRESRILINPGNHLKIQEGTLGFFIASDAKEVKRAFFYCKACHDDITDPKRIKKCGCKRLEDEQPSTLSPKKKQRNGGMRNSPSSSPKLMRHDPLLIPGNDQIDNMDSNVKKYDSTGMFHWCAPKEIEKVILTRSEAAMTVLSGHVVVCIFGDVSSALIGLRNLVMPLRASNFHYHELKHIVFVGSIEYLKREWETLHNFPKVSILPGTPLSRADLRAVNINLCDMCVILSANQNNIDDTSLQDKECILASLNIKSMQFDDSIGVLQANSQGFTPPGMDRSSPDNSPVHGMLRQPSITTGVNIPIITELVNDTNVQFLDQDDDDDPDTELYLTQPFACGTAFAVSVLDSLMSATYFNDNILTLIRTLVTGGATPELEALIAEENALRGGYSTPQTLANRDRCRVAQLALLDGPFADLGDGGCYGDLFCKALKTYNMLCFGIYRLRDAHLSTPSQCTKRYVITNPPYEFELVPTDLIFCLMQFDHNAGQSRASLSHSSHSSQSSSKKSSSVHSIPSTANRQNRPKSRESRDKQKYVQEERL
BK channel (Bos taurus, UniProt Q28204), sequence (Q28204 whole entry): as above
BK channel (Bos taurus, UniProt Q28204), sequence (Q28067 whole entry partner): as the sequence (Q28067 whole entry) above

| SMILES | concentrations at which the BK channels were activated (BK channel [1]) | activation of single BK channels (BK channel [2]) | increase of the open probability of the BK channel (BK channel [2]) | activation of BK currents (blockable by charybdotoxin) (BK currents) | increase of the outward current (BK currents) | shift of the activation curve towards negative membrane potentials (BK currents) | activation of the BK channel (BK channel [1]; 1 μM) | relaxation of acetylcholine-contracted guinea-pig ileum [3] | antagonism of cocaine induced hypermotility [4] |
| --- | --- | --- | --- | --- | --- | --- | --- | --- | --- |
| O=C(Nc1cccc(C(F)(F)F)c1)Nc1cc(C(F)(F)F)ccc1O [N-(3-(trifluoromethyl)phenyl)-N'-(2-hydroxy-5-(trifluoromethyl)phenyl) urea] | greater than 10 μM | – | – | – | – | – | – | – | – |
| O=C(Nc1cccc(C(F)(F)F)c1)Nc1cc(Cl)ccc1O [N-(3-(trifluoromethyl)phenyl)-N'-(2-hydroxy-5-chlorophenyl) urea] | ≥ 3 µM | activated | several hundred | specifically activated BK currents | up to 10 times | more than -60 mV | significantly activated | relaxes the ileum in a dose-dependent way | antagonizes cocaine induced hypermotility |
| O=C(Nc1ccccc1)Nc1cc(Cl)ccc1O [N-phenyl-N'-(2-hydroxy-5-chlorophenyl) urea] | ≥ 3 µM | – | – | – | – | – | – | – | – |
